# Literature values as cited in PubChem BioAssay AID1259409 (Chemical Carcinogenesis Research Information System (CCRIS), 2018).
# Test system: rodent chemically induced tumor inhibition, incidence and multiplicity
# Assay: CCRIS tumor inhibitor studies
structure (smiles),measurement,setting,value
CC(=O)Oc1ccccc1C(=O)O,"tumour outcome (control, treated, inhibition, significance)","Carcinogen: 1,2-DIMETHYLHYDRAZINE DIHYDROCHLORIDE, 306-37-6, Dose [Inhibitor]: 0, 10 MG/KG/D IN 0.2 ML OF 5% SODIUM BICARBONATE FOR 1 WK PRIOR +0 AND 1 WK POST CARCINOGEN DOSE (STUDY DURATION: 36 WK), Route [Inhibitor]: SUBCUTANEOUS, Species: RAT, Strain/Sex: SPRAGUE-DAWLEY/MALE, Target Tissue: Type of Lesion: COLON: ADENOCARCINOMA, Dose [Carcinogen]: 30 MG/KG ONCE, Promoter: NONE USED","50%, 17%, 66%, p<0.05"
same,"tumour outcome (control, treated, inhibition, significance)","Carcinogen: 1,2-DIMETHYLHYDRAZINE DIHYDROCHLORIDE, 306-37-6, Dose [Inhibitor]: 0, 50 MG/KG/D IN 0.6 ML OF 5% SODIUM BICARBONATE BEGINNING 4 WK POST CARCINOGEN DOSE AND CONTINUING FOR DURATION OF STUD, Route [Inhibitor]: SUBCUTANEOUS, Species: RAT, Strain/Sex: SPRAGUE-DAWLEY/MALE, Target Tissue: Type of Lesion: COLON: ADENOCARCINOMA, Dose [Carcinogen]: 30 MG/KG ONCE, Promoter: NONE USED","42%, 42%, 0%, not significant"
same,"tumour outcome (control, treated, inhibition, significance)","Carcinogen: 2-AMINO-1-METHYL-6-PHENYLIMIDAZO[4,5-B]PYRIDINE [105650-23-5], Dose [Inhibitor]: 400 PPM IN DIET FOR 4 WK BEGINNING WK PRIOR TO FIRST CARCINOGEN DOSE (STUDY DURATION: 25 WK), Route [Inhibitor]: ORAL, Species: RAT, Strain/Sex: SPRAGUE-DAWLEY/FEMALE, Target Tissue: Type of Lesion: MAMMARY GLAND: FIBROADENOMA OR DUCTAL CARCINOMA, Dose [Carcinogen]: 85 MG/KG BW 2X/WK FOR 4 WK (STUDY DURATION: 25 WK), Promoter: NONE","67.7%, 50.0%, 26%, not significant"
same,"tumour outcome (control, treated, inhibition, significance)","Carcinogen: 2-AMINO-1-METHYL-6-PHENYLIMIDAZO[4,5-B]PYRIDINE, 105650-23-5, Dose [Inhibitor]: 0, 400 PPM IN HIGH FAT DIET FOR 4 WK BEGINNING 1 WK PRIOR TO CARCINOGEN TREATMENT (STUDY DURATION: 25 WK), Route [Inhibitor]: ORAL, Species: RAT, Strain/Sex: SPRAGUE-DAWLEY/FEMALE, Target Tissue: Type of Lesion: MAMMARY GLAND: CARCINOMA, Dose [Carcinogen]: 85 MG/KG BW IN CORN OIL 8 TIMES IN 10 D, Promoter: NONE USED","21/31 (68%), 14/30 (47%), 31%, not significant"
same,"tumour outcome (control, treated, inhibition, significance)","Carcinogen: 2-AMINO-1-METHYL-6-PHENYLIMIDAZO[4,5-B]PYRIDINE, 105650-23-5, Dose [Inhibitor]: 0, 400 PPM IN HIGH FAT DIET FOR 4 WK BEGINNING 1 WK PRIOR TO CARCINOGEN TREATMENT (STUDY DURATION: 25 WK), Route [Inhibitor]: ORAL, Species: RAT, Strain/Sex: SPRAGUE-DAWLEY/FEMALE, Target Tissue: Type of Lesion: MAMMARY GLAND: FIBROADENOMA, Dose [Carcinogen]: 85 MG/KG BW IN CORN OIL 8 TIMES IN 10 D, Promoter: NONE USED","3/31 (10%), 2/30 (7%), 30%, not significant"
same,"tumour outcome (control, treated, inhibition, significance)","Carcinogen: 4-(METHYLNITROSAMINO)-1-(3-PYRIDYL)-1-BUTANONE, 64091-91-4, Dose [Inhibitor]: 0, 32 MG/KG BW BUFFERED ASPIRIN IN DIET FOR DURATION OF STUDY BEGINNING 2 WK PRIOR TO CARCINOGEN TREATMENT (STUDY DURATI, Route [Inhibitor]: ORAL, Species: MOUSE, Strain/Sex: STRAIN-A/FEMALE, Target Tissue: Type of Lesion: LUNG: TUMOR, Dose [Carcinogen]: 9.1 MG/MOUSE (TOTAL DOSE) ADMINISTERED IN DRINKING WATER OVER 7 WK, Promoter: NONE USED","23/24 (96%), 15/15 (100%), -4%, not significant"
same,"tumour outcome (control, treated, inhibition, significance)","Carcinogen: 4-(METHYLNITROSAMINO)-1-(3-PYRIDYL)-1-BUTANONE, 64091-91-4, Dose [Inhibitor]: 0, 32 MG/KG BW NON-BUFFERED ASPIRIN IN DIET FOR DURATION OF STUDY BEGINNING 2 WK PRIOR TO CARCINOGEN TREATMENT (STUDY DU, Route [Inhibitor]: ORAL, Species: MOUSE, Strain/Sex: STRAIN-A/FEMALE, Target Tissue: Type of Lesion: LUNG: TUMOR, Dose [Carcinogen]: 9.1 MG/MOUSE (TOTAL DOSE) ADMINISTERED IN DRINKING WATER OVER 7 WK, Promoter: NONE USED","23/24 (96%), 14/14 (100%), -4%, not significant"
same,"tumour outcome (control, treated, inhibition, significance)","Carcinogen: 4-(METHYLNITROSAMINO)-1-(3-PYRIDYL)-1-BUTANONE, 64091-91-4, Dose [Inhibitor]: 0, 35 MG/KG BW IN DIET FOR DURATION OF STUDY BEGINNING 2 WK PRIOR TO CARCINOGEN TREATMENT (STUDY DURATION: 25 WK), Route [Inhibitor]: ORAL, Species: MOUSE, Strain/Sex: STRAIN-A/FEMALE, Target Tissue: Type of Lesion: LUNG: TUMOR, Dose [Carcinogen]: 9.1 MG/MOUSE (TOTAL DOSE) ADMINISTERED IN DRINKING WATER OVER 7 WK, Promoter: NONE USED","23/24 (96%), 14/15 (93%), 3%, not significant"
same,"tumour outcome (control, treated, inhibition, significance)","Carcinogen: 4-(METHYLNITROSAMINO)-1-(3-PYRIDYL)-1-BUTANONE, 64091-91-4, Dose [Inhibitor]: 0, 73 MMOL/KG BW/D IN DIET FOR DURATION OF STUDY BEGINNING 2 WK PRIOR TO CARCINOGEN TREATMENT (STUDY DURATION: 25 WK), Route [Inhibitor]: ORAL, Species: MOUSE, Strain/Sex: STRAIN-A/FEMALE, Target Tissue: Type of Lesion: LUNG: TUMOR, Dose [Carcinogen]: 2.2 MMOL/KG BW (TOTAL DOSE) ADMINISTERED IN DRINKING WATER FOR 7 WK, Promoter: NONE USED","29/29 (100%), 25/25 (100%), 0%, not significant"
same,"tumour outcome (control, treated, inhibition, significance)","Carcinogen: 4-(METHYLNITROSAMINO)-1-(3-PYRIDYL)-1-BUTANONE, 64091-91-4, Dose [Inhibitor]: 0, 147 MMOL/KG BW/D IN DIETS FOR DURATION OF STUDY BEGINNING 2 WK PRIOR TO CARCINOGEN TREATMENT (STUDY DURATION: 25 WK), Route [Inhibitor]: ORAL, Species: MOUSE, Strain/Sex: STRAIN-A/FEMALE, Target Tissue: Type of Lesion: LUNG:TUMOR, Dose [Carcinogen]: 2.2 MMOL/KG BW (TOTAL DOSE) ADMINISTERED IN DRINKING WATER FOR 7 WK, Promoter: NONE USED","29/29 (100%), 24/24 (100%), 0%, not significant"
same,"tumour outcome (control, treated, inhibition, significance)","Carcinogen: 4-(METHYLNITROSAMINO)-1-(3-PYRIDYL)-1-BUTANONE, 64091-91-4, Dose [Inhibitor]: 0, 294 MG/KG DIET FOR DURATION OF STUDY BEGINNING 2 WK PRIOR TO CARCINOGEN TREATMENT (STUDY DURATION: 25 WK), Route [Inhibitor]: ORAL, Species: MOUSE, Strain/Sex: STRAIN-A/FEMALE, Target Tissue: Type of Lesion: LUNG: TUMOR, Dose [Carcinogen]: 9.1 MG/MOUSE IN DRINKING WATER FOR 7 WK, Promoter: NONE USED","29/29 (100%), 24/24 (100%), 0%, not significant"
same,"tumour outcome (control, treated, inhibition, significance)","Carcinogen: 4-(METHYLNITROSAMINO)-1-(3-PYRIDYL)-1-BUTANONE, 64091-91-4, Dose [Inhibitor]: 0, 294 MMOL/KG BW/D IN DIET FOR DURATION OF STUDY BEGINNING 2 WK PRIOR TO CARCINOGEN TREATMENT (STUDY DURATION: 25 WK), Route [Inhibitor]: ORAL, Species: MOUSE, Strain/Sex: STRAIN-A/FEMALE, Target Tissue: Type of Lesion: LUNG: TUMOR, Dose [Carcinogen]: 2.2 MMOL/KG BW (TOTAL DOSE) ADMINISTERED IN DRINKING WATER FOR 7 WK, Promoter: NONE USED","29/29 (100%), 24/24 (100%), 0%, not significant"
same,"tumour outcome (control, treated, inhibition, significance)","Carcinogen: 4-(METHYLNITROSAMINO)-1-(3-PYRIDYL)-1-BUTANONE, 64091-91-4, Dose [Inhibitor]: 0, 588 MMOL/KG BW/D IN DIET FOR DURATION OF STUDY BEGINNING 2 WK PRIOR TO CARCINOGEN TREATMENT (STUDY DURATION: 25 WK), Route [Inhibitor]: ORAL, Species: MOUSE, Strain/Sex: STRAIN-A/FEMALE, Target Tissue: Type of Lesion: LUNG: TUMOR, Dose [Carcinogen]: 2.2 MMOL/KG BW (TOTAL DOSE) ADMINISTERED IN DRINKING WATER FOR 7 WK, Promoter: NONE USED","29/29 (100%), 24/24 (100%), 0%, not significant"
same,"tumour outcome (control, treated, inhibition, significance)","Carcinogen: 7,12-DIMETHYLBENZ[A]ANTHRACENE, 57-97-6, Dose [Inhibitor]: 0.6% NEUTRALIZED WITH 12 MG SODIUM CARBONATE DAILY (STUDY DURATION: 14 WK), Route [Inhibitor]: ORAL, Species: HAMSTER, Strain/Sex: SYRIAN/FEMALE, MALE, Target Tissue: Type of Lesion: BUCCAL CELLS: EPIDERMOID TUMORS, Dose [Carcinogen]: 0.5% SOLUTION IN MINERAL OIL 3/WK FOR UP TO 14 WK, Promoter: NONE USED","6.4%, 4.8%, 25%, p<0.1"
same,"tumour outcome (control, treated, inhibition, significance)","Carcinogen: AZOXYMETHANE, 25843-45-2, Dose [Inhibitor]: 0, 200 PPM IN DIET BEGINNING 2 WK PRIOR TO CARCINOGEN TREATMENT AND CONTINUING FOR 52 WK (STUDY DURATION: 54 WK), Route [Inhibitor]: ORAL, Species: RAT, Strain/Sex: F344/MALE, Target Tissue: Type of Lesion: COLON: ADENOCARCINOMA, Dose [Carcinogen]: 15 MG/KG BW 1/WK FOR 2 WK, Promoter: NONE USED","78%, 53%, 32%, p<0.05"
same,"tumour outcome (control, treated, inhibition, significance)","Carcinogen: AZOXYMETHANE, 25843-45-2, Dose [Inhibitor]: 0, 250 PPM IN DIET FOR 13 WK BEGINNING 36 WK POST LAST CARCINOGEN DOSE (STUDY DURATION: 49 WK), Route [Inhibitor]: ORAL, Species: RAT, Strain/Sex: F344/MALE, Target Tissue: Type of Lesion: COLON: ADENOMA, Dose [Carcinogen]: 12 MG/KG BW IN 0.9% SALINE TWICE, Promoter: CHOLIC ACID, 81-25-4","81%, 94%, -16%, not significant"
same,"tumour outcome (control, treated, inhibition, significance)","Carcinogen: AZOXYMETHANE, 25843-45-2, Dose [Inhibitor]: 0, 250 PPM IN DIET FOR 13 WK BEGINNING 36 WK POST LAST CARCINOGEN DOSE (STUDY DURATION: 49 WK), Route [Inhibitor]: ORAL, Species: RAT, Strain/Sex: F344/MALE, Target Tissue: Type of Lesion: SMALL INTESTINE: ADENOCARCINOMA, Dose [Carcinogen]: 12 MG/KG BW IN 0.9% SALINE TWICE, Promoter: CHOLIC ACID, 81-25-4","23%, 19%, 17%, not significant"
same,"tumour outcome (control, treated, inhibition, significance)","Carcinogen: AZOXYMETHANE, 25843-45-2, Dose [Inhibitor]: 0, 250 PPM IN DIET FOR 13 WK BEGINNING 36 WK POST LAST CARCINOGEN DOSE (STUDY DURATION: 49 WK), Route [Inhibitor]: ORAL, Species: RAT, Strain/Sex: F344/MALE, Target Tissue: Type of Lesion: SMALL INTESTINE: ADENOMA, Dose [Carcinogen]: 12 MG/KG BW IN 0.9% SALINE TWICE, Promoter: CHOLIC ACID, 81-25-4","17%, 47%, -176%, p<0.05"
